In patent US11400104B2, “Skeletal removal of bisphosphonates” (The Regents of the University of California, priority 2016, dated 2022):
Entries after “also recorded” stand apart in the source; their conditions may differ.

Experiments:
mouse cranial bone = assay: cranial bone displacement: AF647-ZOL pre-adsorbed via IV, FAM-ZOL sub-periosteal injection; assay type: in vivo; conditions: for signal of pre-adsorbed AF647-ZOL at the FAM-ZOL injection site: AF647-ZOL 100 μl of 50 μM IV 6 days before, increasing dose of FAM-ZOL; for FAM signal on the cranial bone at the injection site: sub-periosteal 10 μl of 0, 1, 10 or 50 μM
Procedure: FIG. 12A to FIG. 12C show the displacement and replacement of AF647-ZOL and 5-FAM-ZOL. FIG. 12A are fluorescent images of cranial bone. AF647-ZOL (50 μM) was pre-adsorbed on cranial bone via IV injection. 5-FAM-ZOL at the indicated doses was directly injected to the sub-periosteal space. […] The first bars of each set are for AF647-ZOL and the second bars of each set are for 5-FAM-ZOL. *, P<0.05 vs Veh by Dunnett's test.
Mice were pre-treated by 100 μl of 50 μM AF647-ZOL retro-orbital IV injection. Six days later, mice received sub-periosteal injection to cranial bone with 10 μl of 0 μM, 1 μM, 10 μM, or 50 μM FAM-ZOL. The cranial bone was harvested and soft tissues were removed. The fluorescent signals of AF647 and FAM were measured by standardized fluorescent biophotonics. The cranial bones were then prepared for cryosection. Cross-sections were made by the tape method and evaluated by confocal laser scanning microscopy.

[1] = hydroxyapatite (HAP) binding affinity, relative retention times normalized to RIS; conditions: FIG. 7
Procedure: FIG. 7 is a bar graph showing hydroxyapatite (HAP) binding affinity of Zoledronate (ZOL), ROX-RIS, 5-FAM-ZOL, and AF647-ZOL. Relative retention times were normalized to RIS.
Hydroxyapatite assays indicate that the FL-BPs generally retain substantial affinity for bone mineral that reflect the affinity of the BP component and to a lesser extent, the affinity of the conjugated fluorophore. Hydroxyapatite (Macro-Prep® Ceramic hydroxyapatite Type II […]) was obtained from Bio-Rad Laboratories, Inc. Hercules, Calif. Accurately weighed hydroxyapatite powder (1.4-1.6 mg) was suspended in a 4 mL clear vial containing the appropriate volume of assay buffer (0.05% (wt/vol) Tween20, 10 μM EDTA and 100 mM HEPES pH=7.4) for 3 hours. Hydroxyapatite was then incubated with increasing amounts of FAM-BP and ROX-BP (0, 25, 50, 100, 200, and 300 μM). Samples were gently shaken for 3 hours at 37° C. in appropriate volume of assay buffer (0.05% (wt/vol) Tween20, 10 μM EDTA and 100 mM HEPES pH=7.4). Subsequent to the equilibrium period, the vials were centrifuged at 10,000 rpm for 5 minutes to separate the solids and the supernatant. 0.3 mL of the supernatant was collected and the equilibrium solution concentration is measured by using Shimadzu UV-VIS spectrometer. For the calibration series, FL-BP probe standards were prepared by serial dilution from the stock solution with the same isotherm buffer to give the range from 0 to 400 μM. Calibration curves were constructed using standard solutions of the target FL-BPs. Fluorescent emission can also be used to calculate the binding parameters. Nonspecific binding was measured with a similar procedure in the absence of hydroxyapatite as control. Binding parameters (Kd and Bmax, represent the equilibrium dissociate constant and maximum number of binding sites, respectively) were calculated using the PRISM program (Graphpad, USA). The binding parameters of each compound was measured in 5 independent experiments. […]

mouse maxilla = assay: preliminary study: fluorescent imaging of mouse maxilla after 5-FAM-ZOL IV or ROX-RIS intraoral injection; assay type: in vivo; conditions: single IV 200 μl of 350 μM; 3 weeks after
Procedure: In a preliminary study female C57B16/J (B6) mice (8 weeks old) received either a single IV injection via tail vein of 200 μl of 350 μM 5-FAM-ZOL (5-FAM-ZOL, #BV111001, BioVinc LLC, Culver City, Calif.) or a single intraoral injection of 25 μl of 50 μM ROX-RIS (5(6)-ROX-RIS, #BV150101, BioVinc LLC, CA) to gingival/palatal tissue at maxillary left first molar (white arrow in FIG. 11). […], mice were euthanized 3 weeks after the IV injection of 5-FAM-ZOL or 2 days after the intraoral injection of ROX-RIS. Skulls (containing maxilla) were harvested and standardized fluorescent biophotonics image was obtained using an excitation wavelength of 460 nm and the 515 nm filter (LAS3000, FUJIFILM Corp).

femur trabecular bone = assay: micro CT evaluation of pharmacological function of 5-FAM-ZOL in vitamin D deficient rats; assay type: in vivo; conditions: vitamin D deficient (VitD (−)) rats; FIG. 13
Procedure: The pharmacological function of 5-FAM-ZOL was examined in vitamin D deficient (VitD (−)) rats (n=3 in each group). […] Bars are 1.0 mm. *: p<0.05 by Student's t-test.
This study determines the anti-resorptive function of FL-BP in vivo, as compared to ZOL. Female B6 mice were injected with 50 μM ZOL (n=6), 50 μM FL-BP (n=6) or 0.9% NaCl vehicle solution (control: n=6) via tail vein. Three weeks later, mice were euthanized and femur and L4/L5 were harvested. After fixed in 10% buffered formalin, bone samples were subjected to micro CT analysis. The anti-resorptive function were quantitatively established by the trabecular bone three-dimensional morphometry (e.g., BV/TV, Tb.N, Tb.Th, TbSp). FL-BPs with minimal or no pharmacological BP function are used.

O=C(NCC(O)C[n+]1ccn(CC(O)(P(=O)(O)O)P(=O)(O)O)c1)c1ccc(-c2c3ccc(=O)cc-3oc3cc(O)ccc23)c(C(=O)O)c1 (stereo not drawn) [5-FAM-ZOL]
signal of pre-adsorbed AF647-ZOL at the FAM-ZOL injection site (mouse cranial bone): decreased | signal of pre-adsorbed AF647-ZOL at the FAM-ZOL injection site (mouse cranial bone; listed as FAM-ZOL): gradual decrease | AF647-ZOL signal on the external versus internal bone surface after FAM-ZOL injection (mouse cranial bone; cranial bone cryo-cross sections): disproportionately reduced | FAM signal on the cranial bone at the injection site (mouse cranial bone): increased with increasing injection dose | FAM signal on the cranial bone at the injection site (mouse cranial bone; listed as FAM-ZOL): dose dependent increase | location of FAM-ZOL signal in cranial bone (mouse cranial bone; sub-periosteal injection, cryo-cross sections): primarily on the external bone surface | influence of the fluorophore on hydroxyapatite affinity [1]: small reduction | fluorescent signal in maxilla and zygomatic arch (mouse maxilla): Strong and relatively uniform green fluorescent signal | pharmacological (anti-resorptive) function (femur trabecular bone): exhibited pharmacological function; also recorded: effectively blocked catabolic bone remodeling
